Here are results for eight molecules from PMC9460512, “A conserved sequence motif in the Escherichia coli soluble FAD-containing pyridine nucleotide transhydrogenase is important for reaction efficiency” (The Journal of Biological Chemistry, 2022).

The stoichiometry N is a count of units in the complex or per binding partner. The term Km denotes the substrate concentration at which the rate is half of its maximum. The kcat is the number of substrate molecules converted per active site and unit of time at saturation. One may read the kcat/Km as the turnover number divided by the Michaelis constant.

For data set [1], the target named is T1, SthA (UdhA), soluble pyridine nucleotide transhydrogenase (Escherichia coli, UniProt P27306). The experiment in a line: thioNADPH formation rate at […] nm. The conditions noted are these: activator; 1.0 mM NADH, 0.15 mM thioNADP+, 50 mM Tris pH 7.5, 30 °C. It is filed as biochemical.
Data set [2] has as its target T1, SthA (UdhA), soluble pyridine nucleotide transhydrogenase. The experiment in a line: thioNADPH formation at […] nm, substrate-inhibition fit. It is filed as biochemical. The conditions noted are these: 50 mM Tris pH 7.5, 30 °C.
Data set [3] has as its target SthA (UdhA), soluble pyridine nucleotide transhydrogenase (Escherichia coli, UniProt P27306, C45A). The experiment in a line: stopped-flow flavin reduction at […] nm, kobs vs NADH. The class given is biochemical. The conditions noted are these: apparent; reductive half-reaction, anaerobic, 25 °C, no NADP+; 50 mM Tris pH 7.5.
Data set [4] has as its target T1, SthA (UdhA), soluble pyridine nucleotide transhydrogenase. The description is as above. It is filed as biochemical. The conditions noted are these: apparent; reductive half-reaction, anaerobic, 25 °C, no NADP+; 50 mM Tris pH 7.5.
The target in data set [5] is SthA (UdhA), soluble pyridine nucleotide transhydrogenase (Escherichia coli, UniProt P27306, T50C). Described as above. As to conditions: apparent; reductive half-reaction, anaerobic, 25 °C, no NADP+; 50 mM Tris pH 7.5. The class given is biochemical.
For data set [6], the target named is T1, SthA (UdhA), soluble pyridine nucleotide transhydrogenase. The experiment in a line: absorbance spectrum of purified holoenzyme (A280/[…]). The class given is binding. As to conditions: bound prosthetic group copurified; 20 μM FAD in lysis buffer.
Data set [7] concerns the molecule itself. The experiment in a line: dynamic light scattering; purified SthA (>1 mg/ml) in a microcuvette, DynaPro Nanostar, 20 °C, three independent purification batches; oligomer size from the hydrodynamic radius.
Substrate in data set [8]: NC(=O)C1=CN([C@@H]2O[C@H](COP(=O)(O)OP(=O)(O)OC[C@H]3O[C@@H](n4cnc5c(N)ncnc54)[C@H](OP(=O)(O)O)[C@@H]3O)[C@@H](O)[C@H]2O)C=CC1
The data set is described as follows: purified protein. It is filed as biochemical, Escherichia coli. The conditions noted are these: oxidase (uncoupling) reaction, 0.2 mM O2, no NAD(P)+, 50 mM Tris pH 7.5, 30 °C.

Substrate in data set [9]: NC(=S)c1ccc[n+]([C@@H]2O[C@H](COP(=O)(O)OP(=O)(O)OC[C@H]3O[C@@H](n4cnc5c(N)ncnc54)[C@H](OP(=O)(O)O)[C@@H]3O)[C@@H](O)[C@H]2O)c1
The data set is described as follows: purified protein. The class given is biochemical, Escherichia coli. As to conditions: transhydrogenase reaction, 10.0 mM NADH, 50 mM Tris pH 7.5, 30 °C.

Sequence of SthA (UdhA), soluble pyridine nucleotide transhydrogenase (Escherichia coli, UniProt P27306, T50C) (P27306 2-466 T50C): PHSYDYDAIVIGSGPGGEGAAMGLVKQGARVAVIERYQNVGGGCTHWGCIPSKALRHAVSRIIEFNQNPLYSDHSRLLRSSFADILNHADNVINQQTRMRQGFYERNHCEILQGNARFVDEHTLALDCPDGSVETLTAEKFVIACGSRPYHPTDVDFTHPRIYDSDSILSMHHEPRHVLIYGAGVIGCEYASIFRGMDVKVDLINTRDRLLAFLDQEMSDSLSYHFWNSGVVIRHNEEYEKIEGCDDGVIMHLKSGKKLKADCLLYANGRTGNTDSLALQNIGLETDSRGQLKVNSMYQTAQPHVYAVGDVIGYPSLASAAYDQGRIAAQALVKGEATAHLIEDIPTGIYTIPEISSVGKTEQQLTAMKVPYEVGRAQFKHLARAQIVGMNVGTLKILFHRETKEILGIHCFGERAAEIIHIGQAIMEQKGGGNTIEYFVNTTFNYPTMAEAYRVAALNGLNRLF
Sequence of SthA (UdhA), soluble pyridine nucleotide transhydrogenase (Escherichia coli, UniProt P27306, C45A) (P27306 2-466 C45A): as the sequence (P27306 2-466 T50C) above, with C44A, C49T counted along it

`Nc1ncnc2c1ncn2[C@@H]1O[C@H](COP(=O)(O)OP(=O)(O)O)[C@@H](O)[C@H]1O` [ADP]: the “% activity at 5.0 mM” value in data set [1] was “ADP was the best reaction activator, followed by AMP and ATP, respectively”.
In the case of `NC(=S)c1ccc[n+]([C@@H]2O[C@H](COP(=O)(O)OP(=O)(O)OC[C@H]3O[C@@H](n4cnc5c(N)ncnc54)[C@H](OP(=O)(O)O)[C@@H]3O)[C@@H](O)[C@H]2O)c1` [thioNADP+], the “KI” value in data set [2] (10.0 mM NADH) was 590 ± 260 µM.
With `Nc1ncnc2c1ncn2[C@@H]1O[C@H](COP(=O)(O)O)[C@@H](O)[C@H]1O` [AMP], the “% activity at 5.0 mM” value in [1] was “all three adenine nucleotides increased the rate of thioNADPH formation”.
Turning to `Nc1ncnc2c1ncn2[C@@H]1O[C@H](COP(=O)(O)OP(=O)(O)OP(=O)(O)O)[C@@H](O)[C@H]1O` [ATP], the “% activity at 5.0 mM” value in data set [1] is reported as “all three adenine nucleotides increased the rate of thioNADPH formation”.
For `NC(=O)C1=CN([C@@H]2O[C@H](COP(=O)(O)OP(=O)(O)OC[C@H]3O[C@@H](n4cnc5c(N)ncnc54)[C@H](O)[C@@H]3O)[C@@H](O)[C@H]2O)C=CC1` [NADH], the Kd is 300 ± 100 µM in data set [3], 88 ± 27 µM in data set [4] and 227 ± 61 µM in data set [5]. Further, in data set [2] (0.5 mM thioNADP+), the “KI” value came out at 12100 ± 2000 µM.
As for `Cc1cc2nc3c(=O)[nH]c(=O)nc-3n(C[C@H](O)[C@H](O)[C@H](O)COP(=O)(O)OP(=O)(O)OC[C@H]3O[C@@H](n4cnc5c(N)ncnc54)[C@H](O)[C@@H]3O)c2cc1C` [FAD], the “absorbance spectrum of purified holoenzyme (A280/450)” value in data set [6] is listed as “absorbance spectrum of the purified protein indicated the presence of bound oxidized FAD”.

B1: soluble pyridine nucleotide transhydrogenase SthA from Escherichia coli K-12 (enzyme, E. coli K-12, UniProt P27306 1-466, looked up)
chain: MPHSYDYDAIVIGSGPGGEGAAMGLVKQGARVAVIERYQNVGGGCTHWGTIPSKALRHAVSRIIEFNQNPLYSDHSRLLRSSFADILNHADNVINQQTRMRQGFYERNHCEILQGNARFVDEHTLALDCPDGSVETLTAEKFVIACGSRPYHPTDVDFTHPRIYDSDSILSMHHEPRHVLIYGAGVIGCEYASIFRGMDVKVDLINTRDRLLAFLDQEMSDSLSYHFWNSGVVIRHNEEYEKIEGCDDGVIMHLKSGKKLKADCLLYANGRTGNTDSLALQNIGLETDSRGQLKVNSMYQTAQPHVYAVGDVIGYPSLASAAYDQGRIAAQALVKGEATAHLIEDIPTGIYTIPEISSVGKTEQQLTAMKVPYEVGRAQFKHLARAQIVGMNVGTLKILFHRETKEILGIHCFGERAAEIIHIGQAIMEQKGGGNTIEYFVNTTFNYPTMAEAYRVAALNGLNRLF
notes: Soluble pyridine nucleotide transhydrogenase SthA (UdhA) of E. coli K-12; protomer with a calculated molar mass of around 54 kDa; No removal of the His tag is described; also called UdhA; soluble transhydrogenase
In the case of B1, the “stoichiometry N” value in [7] was 8.

B2: SthA (UdhA), soluble pyridine nucleotide transhydrogenase (Escherichia coli K-12) (protein)
chain: PHSYDYDAIVIGSGPGGEGAAMGLVKQGARVAVIERYQNVGGGCTHWGTIPSKALRHAVSRIIEFNQNPLYSDHSRLLRSSFADILNHADNVINQQTRMRQGFYERNHCEILQGNARFVDEHTLALDCPDGSVETLTAEKFVIACGSRPYHPTDVDFTHPRIYDSDSILSMHHEPRHVLIYGAGVIGCEYASIFRGMDVKVDLINTRDRLLAFLDQEMSDSLSYHFWNSGVVIRHNEEYEKIEGCDDGVIMHLKSGKKLKADCLLYANGRTGNTDSLALQNIGLETDSRGQLKVNSMYQTAQPHVYAVGDVIGYPSLASAAYDQGRIAAQALVKGEATAHLIEDIPTGIYTIPEISSVGKTEQQLTAMKVPYEVGRAQFKHLARAQIVGMNVGTLKILFHRETKEILGIHCFGERAAEIIHIGQAIMEQKGGGNTIEYFVNTTFNYPTMAEAYRVAALNGLNRLF
In the case of B2, in the data set “purified protein [8]”, the Km was found to be 91.8 ± 30.5 µM, the kcat stood at 0.2 ± 0.03 s⁻¹ and the kcat/Km is 2200 M⁻¹ s⁻¹. Further, in the data set “purified protein [9]”, the Km amounted to 120 ± 40 µM, the kcat is 15.3 ± 3.1 s⁻¹ and the kcat/Km is 128000 M⁻¹ s⁻¹.
